Results published in patent publication US20260325533A1, “CDK INHIBITOR COMPOUNDS” (ALEKSIA THERAPEUTICS, INC., priority 2023, published 2026).
Read-outs that look alike come from different tables or passages of the source. Each block holds one compound with its values, some of them ahead of it.

Assays:
Type in all cases: biochemical
CDK2/CCNE1 = CDK2/CCNE1 (Homo sapiens, UniProt P24941); experiment: CDK2 homogeneous time-resolved fluorescence (HTRF) kinase assay; conditions: CDK2/CCNE
Summary of the method: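 CDK2/CCNE1 (3 nM) preincubated 20 min at 23 °C with compound, then reacted 60 min at 23 °C with 1 mM ATP and 50 nM ULight-4E-BP1 (Thr37/46) peptide. Stopped with EDTA, phospho-peptide detected by Eu-anti-phospho antibody (665 nm or 665/615 ratio). IC50 from 11-point half-log titrations typically starting at 10 μM.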

CDK1/CCNB1 = CDK1/CCNB1 (Homo sapiens, UniProt P06493); experiment: CDK1 homogeneous time-resolved fluorescence (HTRF) kinase assay; conditions: CDK1/CCNB
Summary of the method: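 0.5 nM CDK1/CCNB1 was preincubated 20 min at 23 °C with compound in HEPES pH-unspecified buffer (MgCl2, EGTA, DTT, Tween 20), then reacted 60 min with 1 mM ATP and 50 nM ULight-4E-BP1 (Thr37/46) peptide. EDTA-stopped reactions were detected with 2 nM Eu-anti-phospho antibody; IC50 from 11-point half-log titrations.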

CDK4/CCND3 = CDK4/CCND3 (Homo sapiens, UniProt P11802); experiment: CDK4 homogeneous time-resolved fluorescence (HTRF) kinase assay; conditions: CDK4/CCND
Summary of the method: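 Steps: compound plus 1.5 nM CDK4/CCND3, 20 min, 23 °C; add 1 mM ATP and 50 nM ULight-4E-BP1 (Thr37/46) peptide, 60 min; stop with 10 mM EDTA; add 2 nM Eu anti-phospho antibody, 60 min; read 665 nm. IC50 from 11-point half-log series starting 10 μM.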

CDK6/CCND1 = CDK6/CCND1 (Homo sapiens, UniProt Q00534); experiment: CDK6 homogeneous time-resolved fluorescence (HTRF) kinase assay; conditions: CDK6/CCND
Summary of the method: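 Enzyme pre-incubated 20 min at 23 °C with compound, then reacted 60 min at 23 °C with 1 mM ATP and 50 nM ULight-4E-BP1 (Thr37/46) peptide; 1 nM enzyme, 1% DMSO. EDTA-stopped, Eu-anti-phospho antibody TR-FRET read (665 nm or 665/615 ratio); 11-point half-log titration from 10 μM gave IC50.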

[1] = 25-250 nM marked x, read-out: CDK2/CCNE IC50 25-250 nM
[2] = >250 nM marked x, read-out: CDK1/CCNB IC50 >250 nM
[3] = >250 nM marked x, read-out: CDK4/CCND IC50 >250 nM
[4] = >250 nM marked x, read-out: CDK6/CCND IC50 >250 nM
[5] = x = IC50 <25 nM, read-out: CDK2/CCNE IC50 (<25 nM)
[6] = x = IC50 >250 nM, read-out: CDK1/CCNB IC50 (>250 nM column)
[7] = x = IC50 >250 nM, read-out: CDK4/CCND IC50 (>250 nM column)
[8] = x = IC50 >250 nM, read-out: CDK6/CCND IC50 (>250 nM column)
[9] = x = IC50 25-250 nM, read-out: CDK2/CCNE IC50 (25-250 nM)
[10] = <25 nM, read-out: CDK2/CCNE IC50 <25 nM
[11] = 25-250 nM marked x, read-out: CDK1/CCNB IC50 25-250 nM
[12] = <25 nM, read-out: CDK2/CCNE IC50, <25 nM

Sequence of CDK4/CCND3 (P11802 whole entry): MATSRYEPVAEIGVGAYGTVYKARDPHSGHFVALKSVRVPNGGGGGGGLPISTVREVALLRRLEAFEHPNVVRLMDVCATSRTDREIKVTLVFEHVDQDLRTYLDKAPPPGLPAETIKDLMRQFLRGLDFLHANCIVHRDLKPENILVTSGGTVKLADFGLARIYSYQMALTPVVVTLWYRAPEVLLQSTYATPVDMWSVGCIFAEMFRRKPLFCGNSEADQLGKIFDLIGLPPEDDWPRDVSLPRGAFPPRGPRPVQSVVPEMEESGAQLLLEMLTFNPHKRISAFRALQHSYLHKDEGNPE
Sequence of CDK4/CCND3 (P30281 whole entry partner): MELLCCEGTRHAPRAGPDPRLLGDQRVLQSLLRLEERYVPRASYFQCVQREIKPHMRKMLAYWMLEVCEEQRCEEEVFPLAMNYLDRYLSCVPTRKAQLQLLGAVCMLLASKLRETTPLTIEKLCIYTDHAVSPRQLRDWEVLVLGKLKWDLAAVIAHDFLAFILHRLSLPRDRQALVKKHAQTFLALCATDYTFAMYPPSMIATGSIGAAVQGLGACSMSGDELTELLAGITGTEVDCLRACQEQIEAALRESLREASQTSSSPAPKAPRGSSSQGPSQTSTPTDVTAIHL
Sequence of CDK1/CCNB1 (P06493 whole entry): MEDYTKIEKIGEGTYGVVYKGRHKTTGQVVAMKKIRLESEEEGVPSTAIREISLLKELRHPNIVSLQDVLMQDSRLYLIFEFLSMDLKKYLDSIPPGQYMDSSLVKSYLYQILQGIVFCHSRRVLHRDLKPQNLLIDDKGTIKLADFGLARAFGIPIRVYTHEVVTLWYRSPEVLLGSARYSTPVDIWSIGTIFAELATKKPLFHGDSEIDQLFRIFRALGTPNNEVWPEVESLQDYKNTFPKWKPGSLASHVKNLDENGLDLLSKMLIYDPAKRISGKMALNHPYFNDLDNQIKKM
Sequence of CDK1/CCNB1 (P14635 whole entry partner): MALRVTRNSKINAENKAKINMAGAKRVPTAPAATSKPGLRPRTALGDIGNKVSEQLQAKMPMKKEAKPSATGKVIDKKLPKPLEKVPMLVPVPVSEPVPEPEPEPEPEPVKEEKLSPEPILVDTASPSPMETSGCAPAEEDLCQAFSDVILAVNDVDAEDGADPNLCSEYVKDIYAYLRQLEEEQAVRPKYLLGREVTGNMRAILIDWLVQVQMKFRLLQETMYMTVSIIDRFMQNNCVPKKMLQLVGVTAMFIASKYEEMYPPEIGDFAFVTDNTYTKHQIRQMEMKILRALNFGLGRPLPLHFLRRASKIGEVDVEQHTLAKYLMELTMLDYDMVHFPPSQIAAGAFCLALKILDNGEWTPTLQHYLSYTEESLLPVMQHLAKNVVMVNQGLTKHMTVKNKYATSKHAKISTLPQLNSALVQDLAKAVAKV
Sequence of CDK6/CCND1 (Q00534 whole entry): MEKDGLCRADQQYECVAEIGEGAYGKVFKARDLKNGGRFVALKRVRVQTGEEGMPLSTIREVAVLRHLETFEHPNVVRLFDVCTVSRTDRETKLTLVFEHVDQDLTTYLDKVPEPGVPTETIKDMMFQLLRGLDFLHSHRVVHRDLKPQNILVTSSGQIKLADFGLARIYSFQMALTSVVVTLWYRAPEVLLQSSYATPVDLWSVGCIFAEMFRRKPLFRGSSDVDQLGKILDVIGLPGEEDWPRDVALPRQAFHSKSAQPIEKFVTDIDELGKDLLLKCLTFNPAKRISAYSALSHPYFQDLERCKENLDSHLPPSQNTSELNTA
Sequence of CDK6/CCND1 (P24385 whole entry partner): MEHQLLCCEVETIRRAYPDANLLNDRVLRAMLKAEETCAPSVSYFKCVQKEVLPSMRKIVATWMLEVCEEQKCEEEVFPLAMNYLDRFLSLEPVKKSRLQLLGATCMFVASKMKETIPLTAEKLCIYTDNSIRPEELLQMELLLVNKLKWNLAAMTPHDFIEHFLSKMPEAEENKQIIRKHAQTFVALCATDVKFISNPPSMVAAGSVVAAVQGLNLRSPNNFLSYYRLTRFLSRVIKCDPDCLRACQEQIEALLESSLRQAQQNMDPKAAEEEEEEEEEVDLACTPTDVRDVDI

SMILES: CCC1(CC)C(=O)Nc2cc(C#Cc3nccc4cnc(Nc5ccc(S(=N)(=O)C6CC(F)(F)C6)cc5)cc34)ccc21 (single isomer, unassigned) [Ex 303, 6-((7-((4-(3,3-difluorocyclobutane-1-sulfonimidoyl)phenyl)amino)-2,6-naphthyridin-1-yl)ethynyl)-3,3-diethylindolin-2-one]
IC50 (CDK2/CCNE1; [1]): 25 to 250 nM
IC50 (CDK1/CCNB1; [2]): > 250 nM
IC50 (CDK4/CCND3; [3]): > 250 nM
IC50 (CDK6/CCND1; [4]): > 250 nM

SMILES: COc1cc(S(C)(=O)=O)ccc1Nc1cc2c(C#Cc3ccc4c(c3)NC(=O)C43CC3)nccc2cn1 [Ex 375, 6'-((7-((2-methoxy-4-(methylsulfonyl)phenyl)amino)-2,6-naphthyridin-1-yl)ethynyl)spiro[cyclopropane-1,3'-indolin]-2'-one]
IC50 (CDK2/CCNE1; [5]): < 25 nM
IC50 (CDK1/CCNB1; [6]): > 250 nM
IC50 (CDK4/CCND3; [7]): > 250 nM
IC50 (CDK6/CCND1; [8]): > 250 nM

SMILES: COc1cc(C#Cc2nccc3cnc(Nc4ccc(S(C)(=O)=O)cc4)cc23)ccn1 [Ex 660, 5-((2-methoxypyridin-4-yl)ethynyl)-N-(4-(methylsulfonyl)phenyl)-2,6-naphthyridin-3-amine]
IC50 (CDK2/CCNE1; [9]): 25 to 250 nM
IC50 (CDK1/CCNB1; [6]): > 250 nM
IC50 (CDK4/CCND3; [7]): > 250 nM
IC50 (CDK6/CCND1; [8]): > 250 nM

SMILES: CS(=O)(=O)c1ccc(Nc2cc3c(C#Cc4ccc(=O)[nH]n4)nccc3cn2)cc1 [Ex 618, 6-((7-((4-(methylsulfonyl)phenyl)amino)-2,6-naphthyridin-1-yl)ethynyl)pyridazin-3(2H)-one]
IC50 (CDK2/CCNE1; [5]): < 25 nM
IC50 (CDK1/CCNB1; [6]): > 250 nM
IC50 (CDK4/CCND3; [7]): > 250 nM
IC50 (CDK6/CCND1; [8]): > 250 nM

SMILES: CS(=O)(=O)N1CCC(Nc2cc3c(N4CCCCC4)nccc3cn2)CC1 [Ex 27, N-(1-(methylsulfonyl)piperidin-4-yl)-5-(piperidin-1-yl)-2,6-naphthyridin-3-amine]
IC50 (CDK2/CCNE1; [10]): < 25 nM
IC50 (CDK1/CCNB1; [11]): 25 to 250 nM
IC50 (CDK4/CCND3; <25 nM, read-out: CDK4/CCND IC50 <25 nM): < 25 nM
IC50 (CDK6/CCND1; <25 nM, read-out: CDK6/CCND IC50 <25 nM): < 25 nM

SMILES: Cc1nc(N)nc(C)c1C#Cc1nccc2cnc(Nc3ccc(S(C)(=O)=O)cc3)cc12 [Ex 541, 5-((2-amino-4,6-dimethylpyrimidin-5-yl)ethynyl)-N-(4-(methylsulfonyl)phenyl)-2,6-naphthyridin-3-amine]
IC50 (CDK2/CCNE1; [9]): 25 to 250 nM
IC50 (CDK1/CCNB1; [6]): > 250 nM
IC50 (CDK4/CCND3; [7]): > 250 nM
IC50 (CDK6/CCND1; [8]): > 250 nM

SMILES: CCS(=O)(=O)c1ccc(Nc2cc3c(C#Cc4ccc5c(c4)NC(=O)C54CC4)nccc3cn2)c(OC)c1 [Ex 357, 6'-((7-((4-(ethylsulfonyl)-2-methoxyphenyl)amino)-2,6-naphthyridin-1-yl)ethynyl)spiro[cyclopropane-1,3'-indolin]-2'-one]
IC50 (CDK2/CCNE1; [5]): < 25 nM
IC50 (CDK1/CCNB1; [6]): > 250 nM
IC50 (CDK4/CCND3; [7]): > 250 nM
IC50 (CDK6/CCND1; [8]): > 250 nM

SMILES: COc1cc(S(C)(=N)=O)ccc1Nc1cc2c(C#Cc3ccc4c(c3)NC(=O)C43CC3)nccc2cn1 (single isomer, unassigned) [Ex 305, 6'-((7-((2-methoxy-4-(S-methylsulfonimidoyl)phenyl)amino)-2,6-naphthyridin-1-yl)ethynyl)spiro[cyclopropane-1,3'-indolin]-2'-one]
IC50 (CDK2/CCNE1; [10]): < 25 nM
IC50 (CDK1/CCNB1; [2]): > 250 nM
IC50 (CDK4/CCND3; [3]): > 250 nM
IC50 (CDK6/CCND1; [4]): > 250 nM

SMILES: CS(=O)(=O)c1ccc(Nc2cc3c(C#Cc4cccnc4N)nccc3cn2)cc1 [Ex 598, 5-((2-aminopyridin-3-yl)ethynyl)-N-(4-(methylsulfonyl)phenyl)-2,6-naphthyridin-3-amine]
IC50 (CDK2/CCNE1; [5]): < 25 nM
IC50 (CDK1/CCNB1; [6]): > 250 nM
IC50 (CDK4/CCND3; [7]): > 250 nM
IC50 (CDK6/CCND1; [8]): > 250 nM

SMILES: CS(=O)(=O)N1CCC(Nc2cc3c(N4CC5(CC(O)C5)C4)nccc3cn2)CC1 [Ex 36, 2-(7-((1-(methylsulfonyl)piperidin-4-yl)amino)-2,6-naphthyridin-1-yl)-2-azaspiro[3.3]heptan-6-ol]
IC50 (CDK2/CCNE1; [10]): < 25 nM
IC50 (CDK1/CCNB1; [11]): 25 to 250 nM
IC50 (CDK4/CCND3; 25-250 nM marked x, read-out: CDK4/CCND IC50 25-250 nM): 25 to 250 nM
IC50 (CDK6/CCND1; 25-250 nM marked x, read-out: CDK6/CCND IC50 25-250 nM): 25 to 250 nM

SMILES: CS(=O)(=O)c1ccc(Nc2cc3c(C#Cc4c(N)cccc4Cl)nccc3cn2)cc1 [Ex 576, 5-((2-amino-6-chlorophenyl)ethynyl)-N-(4-(methylsulfonyl)phenyl)-2,6-naphthyridin-3-amine]
IC50 (CDK2/CCNE1; [9]): 25 to 250 nM
IC50 (CDK1/CCNB1; [6]): > 250 nM
IC50 (CDK4/CCND3; [7]): > 250 nM
IC50 (CDK6/CCND1; [8]): > 250 nM

SMILES: C=CS(=O)(=O)c1ccc(Nc2cc3c(C#Cc4ccc(C#N)cc4)nccc3cn2)cc1 [Ex 156, 4-((7-((4-(vinylsulfonyl)phenyl)amino)-2,6-naphthyridin-1-yl)ethynyl)benzonitrile]
IC50 (CDK2/CCNE1; [1]): 25 to 250 nM
IC50 (CDK1/CCNB1; [2]): > 250 nM
IC50 (CDK4/CCND3; [3]): > 250 nM
IC50 (CDK6/CCND1; [4]): > 250 nM

SMILES: C=CS(=O)(=O)c1ccc(Nc2cc3c(N4CCC(C#N)C4)nccc3cn2)cc1 (racemic) [Ex 122, 1-(7-((4-(vinylsulfonyl)phenyl)amino)-2,6-naphthyridin-1-yl)pyrrolidine-3-carbonitrile]
IC50 (CDK2/CCNE1; [1]): 25 to 250 nM
IC50 (CDK1/CCNB1; [2]): > 250 nM
IC50 (CDK4/CCND3; [3]): > 250 nM
IC50 (CDK6/CCND1; [4]): > 250 nM

Other lines, results leading:

IC50 (CDK2/CCNE1; x = IC50 >250 nM, read-out: CDK2/CCNE IC50 (>250 nM column)): > 250 nM
IC50 (CDK1/CCNB1; [6]): > 250 nM
IC50 (CDK4/CCND3; [7]): > 250 nM
IC50 (CDK6/CCND1; [8]): > 250 nM
SMILES: CS(=O)(=O)c1ccc(Nc2cc3c(C#Cc4nccc5[nH]ccc45)nccc3cn2)cc1 [Ex 516, 5-((1H-pyrrolo[3,2-c]pyridin-4-yl)ethynyl)-N-(4-(methylsulfonyl)phenyl)-2,6-naphthyridin-3-amine]

IC50 (CDK2/CCNE1; [9]): 25 to 250 nM
IC50 (CDK1/CCNB1; [6]): > 250 nM
IC50 (CDK4/CCND3; [7]): > 250 nM
IC50 (CDK6/CCND1; [8]): > 250 nM
SMILES: CS(=O)(=O)c1ccc(Nc2cc3c(C#Cc4c[nH]c5nc(Cl)ncc45)nccc3cn2)cc1 [Ex 520, 5-((2-chloro-7H-pyrrolo[2,3-d]pyrimidin-5-yl)ethynyl)-N-(4-(methylsulfonyl)phenyl)-2,6-naphthyridin-3-amine]

IC50 (CDK2/CCNE1; [12]): < 25 nM
IC50 (CDK1/CCNB1; 25-250 nM, read-out: CDK1/CCNB IC50, 25-250 nM): 25 to 250 nM
IC50 (CDK4/CCND3; >250 nM, read-out: CDK4/CCND IC50, >250 nM): > 250 nM
IC50 (CDK6/CCND1; >250 nM, 1 mM ATP, read-out: CDK6/CCND IC50, >250 nM): > 250 nM
SMILES: Cc1c(-c2nccc3cnc(Nc4ccc(S(=O)(=O)Nc5cccc(C(C)(C)O)n5)cc4)cc23)ccc2c1cnn2CC(C)(C)O [Ex 811, 4-((5-(1-(2-hydroxy-2-methylpropyl)-4-methyl-1H-indazol-5-yl)-2,6-naphthyridin-3-yl)amino)-N-(6-(2-hydroxypropan-2-yl)pyridin-2-yl)benzenesulfonamide]

IC50 (CDK2/CCNE1; [5]): < 25 nM
IC50 (CDK1/CCNB1; [6]): > 250 nM
IC50 (CDK4/CCND3; [7]): > 250 nM
IC50 (CDK6/CCND1; x = IC50 25-250 nM, read-out: CDK6/CCND IC50 (25-250 nM)): 25 to 250 nM
SMILES: CS(=O)(=O)c1ccc(Nc2cc3c(-c4ccc5c(c4)C(=O)C(=O)N5)nccc3cn2)cc1 [Ex 600, 5-(7-((4-(methylsulfonyl)phenyl)amino)-2,6-naphthyridin-1-yl)indoline-2,3-dione]

IC50 (CDK2/CCNE1; [12]): < 25 nM
IC50 (CDK1/CCNB1; >250 nM, read-out: CDK1/CCNB IC50 >250 nM): > 250 nM
IC50 (CDK4/CCND3; 25-250 nM, read-out: CDK4/CCND IC50, 25-250 nM): 25 to 250 nM
IC50 (CDK6/CCND1; 25-250 nM, 1 mM ATP, read-out: CDK6/CCND IC50, 25-250 nM): 25 to 250 nM
SMILES: Cc1c(-c2nccc3cnc(Nc4ccc(S(=O)(=O)Nc5ccc(N6CCOCC6)cn5)cc4)cc23)ccc2c1cnn2CC(C)(C)O [Ex 773, 4-((5-(1-(2-hydroxy-2-methylpropyl)-4-methyl-1H-indazol-5-yl)-2,6-naphthyridin-3-yl)amino)-N-(5-morpholinopyridin-2-yl)benzenesulfonamide]

IC50 (CDK2/CCNE1; [9]): 25 to 250 nM
IC50 (CDK1/CCNB1; [6]): > 250 nM
IC50 (CDK4/CCND3; [7]): > 250 nM
IC50 (CDK6/CCND1; [8]): > 250 nM
SMILES: CC(C)(O)c1ccc(C#Cc2nccc3cnc(Nc4ccc(S(C)(=O)=O)cc4)cc23)cc1 [Ex 596, 2-(4-((7-((4-(methylsulfonyl)phenyl)amino)-2,6-naphthyridin-1-yl)ethynyl)phenyl)propan-2-ol]
